Results as given in US20230348426A1, “OXOPYRROLIDINE FPR2 AGONISTS” (Bristol-Myers Squibb Company, priority 2020, published 2023).

What was measured:
human FPR2 = human FPR2 (Homo sapiens (Human), UniProt P25090); test: FPR2 cyclic adenosine monophosphate (cAMP) assay; assay type: cell-based; conditions: CHO cells overexpressing human FPR2; forskolin 5 µM; inhibition of cAMP production; read-out: hFPR2 cAMP2 EC50
Method in brief: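 CHO cells overexpressing human FPR2 (2,000/well) incubated 30 min at room temperature with compound (0.020 nM–100 µM, 1% DMSO), 5 µM forskolin and 200 µM IBMX.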

human FPR1 = human FPR1 (Homo sapiens (Human), UniProt P21462); test: FPR1 cyclic adenosine monophosphate (cAMP) assay; assay type: cell-based; conditions: CHO cells overexpressing human FPR1; forskolin 10 µM; inhibition of cAMP production; read-out: hFPR1 cAMP EC50
Sequence of human FPR1 (P21462 whole entry): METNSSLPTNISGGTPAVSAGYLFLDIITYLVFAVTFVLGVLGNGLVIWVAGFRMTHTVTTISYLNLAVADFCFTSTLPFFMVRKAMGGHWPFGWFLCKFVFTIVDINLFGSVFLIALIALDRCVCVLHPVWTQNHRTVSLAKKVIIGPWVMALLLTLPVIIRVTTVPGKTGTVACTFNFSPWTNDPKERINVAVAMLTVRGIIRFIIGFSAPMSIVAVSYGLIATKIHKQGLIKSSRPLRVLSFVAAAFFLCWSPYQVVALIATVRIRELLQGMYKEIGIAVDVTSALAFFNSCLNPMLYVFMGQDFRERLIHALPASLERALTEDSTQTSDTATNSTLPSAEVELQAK
Method in brief: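 CHO cells overexpressing human FPR1 (4,000 cells/well) stimulated with 10 µM forskolin plus 200 µM IBMX in the presence of compound (0.020 nM–100 µM, 1% DMSO), 30 min at room temperature. Intracellular cAMP measured by HTRF. Inhibition of cAMP production fitted to a 4-parameter logistic equation.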

Sequence of human FPR2 (P25090 whole entry): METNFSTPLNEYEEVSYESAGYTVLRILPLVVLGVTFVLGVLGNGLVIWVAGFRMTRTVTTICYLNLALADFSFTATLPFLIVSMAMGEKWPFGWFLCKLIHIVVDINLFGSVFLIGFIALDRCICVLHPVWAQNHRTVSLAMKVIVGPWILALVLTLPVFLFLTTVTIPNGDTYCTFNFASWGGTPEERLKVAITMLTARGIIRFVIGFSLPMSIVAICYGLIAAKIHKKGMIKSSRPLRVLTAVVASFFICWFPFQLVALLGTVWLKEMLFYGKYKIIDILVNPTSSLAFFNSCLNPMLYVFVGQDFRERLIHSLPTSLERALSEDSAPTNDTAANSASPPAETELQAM

Row | EC50 (human FPR2) [nM] | EC50 (human FPR1) [nM] | Structure (SMILES)
1 | 3.1 | 13 | COc1ccc([C@@H]2CN(c3cccn(CC(F)F)c3=O)C(=O)[C@H]2NC(=O)c2ccc(OC(F)(F)F)cc2)cc1 [Example 120]
2 | 3.1 | 1.4 | COc1ccc([C@@H]2CN(c3c(C)ccn(CC(F)F)c3=O)C(=O)[C@H]2NC(=O)c2ccc(OC(F)(F)F)cc2)cc1 [Example 121]
3 | 3.3 | 380 | COc1cc(F)c([C@@H]2CN(c3nccc(NCC(C)O)c3C(F)(F)F)C(=O)[C@H]2NC(=O)c2ccc(OC(F)F)cc2)c(F)c1 (some centres unmarked) [Example 129]
4 | 3.4 | 12 | COCC(CO)n1cccc(N2C[C@@H](c3c(F)cc(OC)cc3F)[C@H](NC(=O)c3ccc(OC(F)F)cc3)C2=O)c1=O (some centres unmarked) [Example 133]
5 | 3.5 | 1.6 | COCC(C(=O)N(C)C)n1cccc(N2C[C@@H](c3c(F)cc(OC)cc3F)[C@H](NC(=O)c3ccc(OC(F)(F)F)cc3)C2=O)c1=O (some centres unmarked) [Example 134]
6 | 3.5 | 1.7 | COc1cc(F)c([C@@H]2CN(c3cccn(CC(C)OC)c3=O)C(=O)[C@H]2NC(=O)c2ccc(OC(F)(F)F)cc2)c(F)c1 (some centres unmarked) [Example 138]
7 | 3.6 | 23.1 | COCC(CO)n1cccc(N2C[C@@H](c3c(F)cc(OC)cc3F)[C@H](NC(=O)c3ccc(OC(F)(F)F)cc3)C2=O)c1=O (some centres unmarked) [Example 144]
8 | 3.7 | 8.2 | COc1cc(F)c([C@@H]2CN(c3cccn(CC(F)F)c3=O)C(=O)[C@H]2NC(=O)c2ccc(OC(F)F)cc2)c(F)c1 [Example 145]
9 | 3.8 | 150 | COc1cc(F)c([C@@H]2CN(c3nc(NC(C)=O)ccc3F)C(=O)[C@H]2NC(=O)c2ccc(OC(F)F)cc2)c(F)c1 [Example 146]
10 | 3.8 | 2.2 | COc1cc(F)c([C@@H]2CN(c3cccn(CC(OC)C(F)(F)F)c3=O)C(=O)[C@H]2NC(=O)c2ccc(OC(F)(F)F)cc2)c(F)c1 (some centres unmarked) [Example 147]
11 | 4 | 1.3 | COc1cc(F)c([C@@H]2CN(c3cccn(CC(OC)C(F)(F)F)c3=O)C(=O)[C@H]2NC(=O)c2ccc(OC(F)(F)F)cc2)c(F)c1 (some centres unmarked) [Example 156]
12 | 4.1 | 9.4 | COCCn1cccc(N2C[C@@H](c3ccc(Cl)cc3)[C@H](NC(=O)c3ccc(OC(F)F)cc3)C2=O)c1=O [Example 162]
13 | 4.2 | 1200 | COc1cc(F)c([C@@H]2CN(c3nccc(NC4CC4)c3C(F)(F)F)C(=O)[C@H]2NC(=O)c2ccc(Cl)cc2)c(F)c1 [Example 163]
14 | 4.2 | 290 | COc1cc(F)c([C@@H]2CN(c3cccn(CCN4CC5(COC5)C4)c3=O)C(=O)[C@H]2NC(=O)c2ccc(OC(F)F)cc2)c(F)c1 [Example 164]
15 | 4.3 | 21 | CCn1cccc(N2C[C@@H](c3c(F)cc(OC)cc3F)[C@H](NC(=O)c3ccc(OC(F)F)cc3)C2=O)c1=O [Example 169]

Second part, the molecule before the results:

Row | Structure (SMILES) | EC50 (human FPR2) [nM] | EC50 (human FPR1) [nM]
16 | COc1cc(F)c([C@@H]2CN(c3nc(N4C(=O)C5CCCC54)ccc3F)C(=O)[C@H]2NC(=O)c2ccc(OC(F)F)cc2)c(F)c1 (some centres unmarked) [Example 119] | 3.1 | 67
17 | COc1cc(F)c([C@@H]2CN(c3nc(NC4CCOC4)ccc3F)C(=O)[C@H]2NC(=O)c2ccc(OC(F)F)cc2)c(F)c1 (some centres unmarked) [Example 122] | 3.2 | 1080
18 | COc1cc(F)c([C@@H]2CN(c3cccnc3OC(F)F)C(=O)[C@H]2NC(=O)c2ccc(Cl)cc2)c(F)c1 [Example 123] | 3.2 | 41
19 | COc1cc(F)c([C@@H]2CN(c3nc(N4CC(C)OCC4=O)ccc3F)C(=O)[C@H]2NC(=O)c2ccc(OC(F)(F)F)cc2)c(F)c1 (some centres unmarked) [Example 124] | 3.3 | 47
20 | COc1cc(F)c([C@@H]2CN(c3nccc(NC4CCOC4)c3C(F)(F)F)C(=O)[C@H]2NC(=O)c2ccc(Cl)cc2)c(F)c1 (some centres unmarked) [Example 125] | 3.3 | 1100
21 | COc1cc(F)c([C@H]2[C@H](NC(=O)c3ccc(OC(F)F)cc3)C(=O)N(c3ncccc3OC(C)C)[C@H]2C)c(F)c1 [Example 126] | 3.3 | 2300
22 | COCCn1cccc(N2C(=O)[C@@H](NC(=O)c3ccc(OC(F)F)cc3)[C@H](c3c(F)cc(OC)cc3F)[C@H]2C)c1=O [Example 127] | 3.3 | 390
23 | CCn1cccc(N2C[C@@H](c3ccc(OC)cc3)[C@H](NC(=O)c3ccc(OC(F)(F)F)cc3)C2=O)c1=O [Example 128] | 3.3 | 6.3
24 | COc1cc(F)c([C@@H]2CN(c3cccn(CCO)c3=O)C(=O)[C@H]2NC(=O)c2ccc(Cl)cc2)c(F)c1 [Example 130] | 3.4 | 340
25 | COCC(C(=O)N1CCOCC1)n1ccc(C)c(N2C[C@@H](c3c(F)cc(OC)cc3F)[C@H](NC(=O)c3ccc(OC(F)F)cc3)C2=O)c1=O (some centres unmarked) [Example 131] | 3.4 | 0.8
26 | COc1ccc([C@@H]2CN(c3c(C)ccn(C4CCOC4)c3=O)C(=O)[C@H]2NC(=O)c2ccc(OC(F)(F)F)cc2)cc1 (some centres unmarked) [Example 132] | 3.4 | 0.8
27 | COc1cc(F)c([C@@H]2CN(c3nc(N4CCC(O)C4=O)ccc3F)C(=O)[C@H]2NC(=O)c2ccc(OC(F)F)cc2)c(F)c1 (some centres unmarked) [Example 135] | 3.5 | 58
28 | COCC(CO)n1cccc(N2C[C@@H](c3ccc(OC)cc3)[C@H](NC(=O)c3ccc(OC(F)(F)F)cc3)C2=O)c1=O (some centres unmarked) [Example 136] | 3.5 | 2.2
29 | COCCn1cccc(N2C[C@@H](c3c(F)cc(OC)cc3F)[C@H](NC(=O)c3ccc(Cl)cc3)C2=O)c1=O [Example 137] | 3.5 | 190
30 | COc1cc(F)c([C@@H]2CN(c3ccc(CO)[nH]c3=O)C(=O)[C@H]2NC(=O)c2ccc(OC(F)F)cc2)c(F)c1 [Example 139] | 3.5 | 570
31 | COc1cc(F)c([C@@H]2CN(c3ccc(C)n(C)c3=O)C(=O)[C@H]2NC(=O)c2ccc(Cl)cc2)c(F)c1 [Example 140] | 3.5 | 610
32 | COc1cc(F)c([C@@H]2CN(c3cccn(CC(C)O)c3=O)C(=O)[C@H]2NC(=O)c2ccc(OC(F)F)cc2)c(F)c1 (some centres unmarked) [Example 141] | 3.6 | 29

Row | Structure (SMILES) | EC50 (human FPR2) [nM] | EC50 (human FPR1) [nM]
33 | COCC(CO)n1cccc(N2C[C@@H](c3c(F)cc(OC)cc3F)[C@H](NC(=O)c3ccc(OC(F)F)cc3)C2=O)c1=O (some centres unmarked) [Example 142] | 3.6 | 87
34 | COc1ccc([C@@H]2CN(c3cccn(CCO)c3=O)C(=O)[C@H]2NC(=O)c2ccc(OC(F)F)cc2)c(F)c1 [Example 143] | 3.6 | 53
35 | COc1cc(F)c([C@@H]2CN(c3cccn(CC(F)F)c3=O)C(=O)[C@H]2NC(=O)c2ccc(OC(F)(F)F)cc2)c(F)c1 [Example 148] | 3.8 | 19
36 | COc1cc(F)c([C@@H]2CN(c3c(C)ccn(CC4CC4)c3=O)C(=O)[C@H]2NC(=O)c2ccc(OC(F)(F)F)cc2)c(F)c1 [Example 151] | 3.9 | 0.5
37 | COc1cc(F)c([C@@H]2CN(c3ccnc(N4C[C@@H](C)N(C)[C@@H](C)C4)c3C(F)(F)F)C(=O)[C@H]2NC(=O)c2ccc(OC(F)F)cc2)c(F)c1 [Example 152] | 3.9 | 460
38 | COCC(CO)n1cccc(N2C[C@@H](c3c(F)cc(OC)cc3F)[C@H](NC(=O)c3ccc(OC(F)(F)F)cc3)C2=O)c1=O (some centres unmarked) [Example 153] | 4 | 4.2
39 | COCC(CO)n1cccc(N2C[C@@H](c3ccc(Cl)cc3)[C@H](NC(=O)c3ccc(OC(F)(F)F)cc3)C2=O)c1=O (some centres unmarked) [Example 154] | 4 | 3.3
40 | COc1cc(F)c([C@@H]2CN(c3cccn(CC(O)C(F)(F)F)c3=O)C(=O)[C@H]2NC(=O)c2ccc(OC(F)(F)F)cc2)c(F)c1 (some centres unmarked) [Example 155] | 4 | 9.3
41 | COc1cc(F)c([C@@H]2CN(c3cccnc3OC3CCOC3)C(=O)[C@H]2NC(=O)c2ccc(OC(F)F)cc2)c(F)c1 (some centres unmarked) [Example 157] | 4 | 100
42 | CCn1cccc(N2C[C@@H](c3c(F)cc(OC)cc3F)[C@H](NC(=O)c3ccc(C(F)(F)F)cc3)C2=O)c1=O [Example 159] | 4.1 | 74
43 | COc1cc(F)c([C@@H]2CN(c3nccc(N4C[C@@H]5C[C@H]4CN5C)c3C#N)C(=O)[C@H]2NC(=O)c2ccc(Cl)cc2)c(F)c1 [Example 160] | 4.1 | 1100
44 | COc1cc(F)c([C@@H]2CN(c3cccn(CC(OC)C(F)(F)F)c3=O)C(=O)[C@H]2NC(=O)c2ccc(OC(F)F)cc2)c(F)c1 (some centres unmarked) [Example 161] | 4.1 | 3.4
45 | CCn1ccc(C)c(N2C[C@@H](c3ccc(OC)cc3F)[C@H](NC(=O)c3ccc(OC(F)F)cc3)C2=O)c1=O [Example 165] | 4.2 | 1.7
46 | COc1cc(F)c([C@@H]2CN(c3nccc(NCC(C)(C)O)c3C(F)(F)F)C(=O)[C@H]2NC(=O)c2ccc(Cl)cc2)c(F)c1 [Example 166] | 4.3 | 2300
47 | COc1cc(F)c([C@@H]2CN(c3nccc(N4C[C@@H](C)N(C)[C@@H](C)C4)c3C#N)C(=O)[C@H]2NC(=O)c2ccc(Cl)cc2)c(F)c1 [Example 167] | 4.3 | > 10000
48 | COc1cc(F)c([C@@H]2CN(c3cc(C(F)(F)F)cn(C)c3=O)C(=O)[C@H]2NC(=O)c2ccc(OC(F)F)cc2)c(F)c1 [Example 168] | 4.3 | 1600
49 | CCn1ccc(C)c(N2C[C@@H](c3ccc(OC)cc3)[C@H](NC(=O)c3ccc(OC(F)(F)F)cc3)C2=O)c1=O [Example 170] | 4.4 | 0.9
